Data reported in patent publication US20170128459A1, “PHARMACEUTICAL COMPOSITION CONTAINING SIRT2 INHIBITOR” (Industrial Cooperation Foundation Chonbuk National …, priority 2014, published 2017).

Columns and labels:
[1] = system: mouse proximal tubule cells; assay: Cell damage caused by cisplatin (number of adhesion cells, microscopy); type: cell-based
Experimental: To confirm if an SIRT2 inhibitor has an effect of inhibiting cell damage caused by cisplatin, the effects of AGK2 and AK-1, which are SIRT2 inhibitors, when the mouse proximal tubule cells were treated with cisplatin were examined. Specifically, mouse proximal tubule cells were treated with AGK2 (10 μM) and AK-1 (10 μM), which are SIRT2 inhibitors, 30 minutes prior to being treated with cisplatin (20 μg/ml) for 48 hours, and the cells were visualized by a Zeiss Z1 microscope.

[2] = system: mouse proximal tubule cells; assay: Cell proliferation test (XTT); type: cell-based; conditions: 24 hours, 1% FBS
Experimental: Specifically, the cell proliferation test was performed by treating mouse proximal tubule cells with trypsin, the cells were put in a 96-well plate at 1×10^3 cells for each well, cultured for 24 hours at 37° C., the culture medium was removed, and each of AGK2, AK-1, cisplatin, cisplatin+AGK2, and cisplatin+AK-1 was treated with a culture medium containing 1% FBS. After culturing for 24 hours at 37° C., the degree of cell proliferation was measured using a cell proliferation kit (Cell proliferation Kit II, XTT, Roche, Mannheim, Germany). As cells proliferate, the amount of color-developing material of mitochondria within cells increases, and thus the absorbance increases. Therefore, the proliferation of the mouse proximal tubule cells was determined based on the absorbance, and the results are provided in FIG. 34.

[3] = system: CXCL2; assay: CXCL2 mRNA expression by qRT-PCR in LPS-treated mouse proximal tubule cells; type: cell-based; conditions: AK-1 10 μM 30 minutes prior to 1-hour LPS (10 μg/ml); compared with LPS-increased expression
Experimental: (§1) Mouse proximal tubule cells, which were donated by Dr Lloyd G. Cantley (Yale University School of Medicine, New Haven, Conn., US), were prepared by culturing, in an α-MEM medium containing added fetal bovine serum at 10% (vol/vol), under conditions including a humidified atmospheric condition of 5% CO2 and 95% air and a temperature condition of 37° C.
(§2) To remove the SIRT2 gene from the cells, siRNA (100 pmol, Dharmacon ON-TARGETplus SMARTpool, Dharmacon Inc., CO, US) and 10 μl Lipofectamine® 2000 (Invitrogen™, Carlsbad, Calif., US) were diluted in an Opti-MEM medium for the cell treatment, and, 7 hours later, the cells were transferred into a cell culture medium for cell culture. 2 days after the initiation of the cell culture, the cells were collected and a decrease in an SIRT2 protein was observed therefrom.
1, 3, and 6 hours after the treatment with the LPS and the CB following the SIRT2 siRNA treatment, the cell culture medium, RNA, and proteins were collected to perform quantitative real-time PCR (qRT-PCR) and an enzyme linked immunosorbent assay. […]
(§3) Mouse proximal tubule cells were treated with AK-1 (10 μM), which is an SIRT2 inhibitor, 30 minutes prior to a 1-hour treatment with an LPS (10 μg/ml). The cells were collected and CXCL2 and CCL2 mRNA expression levels thereof were determined through qRT-PCR.

[4] = system: CCL2; assay: CCL2 mRNA expression by qRT-PCR in LPS-treated mouse proximal tubule cells; type: cell-based; conditions: AK-1 10 μM 30 minutes prior to 1-hour LPS (10 μg/ml); compared with LPS-increased expression
Experimental: as §1, §2
1, 3, and 6 hours after the treatment with the LPS and the CB following the SIRT2 siRNA treatment, the cell culture medium, RNA, and proteins were collected to perform quantitative real-time PCR (qRT-PCR) and an enzyme linked immunosorbent assay.
The CCL2 expression pattern was observed by the method of Example 4.
as §3

[5] = system: acetyl p53; assay: Western blot of acetyl p53 in kidney tissues after cisplatin; type: in vivo; conditions: kidney of mouse having SIRT2 treated with cisplatin
Experimental: (§4) Generally, kidney injuries caused by cisplatin are affected by apoptosis. To determine the effect of SIRT2 gene knockout on controlling apoptosis caused by cisplatin, the acetylation of caspase-3 and p53 was observed through western blotting.
(§5) Kidney tissues were obtained by the method of the above Example 9-2 and then were homogenized to extract proteins therefrom, and the caspase-3 and acetyl p53 protein expression patterns were determined using caspase-3 and acetyl p53 antibodies (Cell Signaling Technology, Danvers, Mass. US). The same blots were peeled off to determine the exact amount of proteins using actin (Sigma-Aldrich Co. LLC., St Louis, Mo., US) and p53 (Cell Signaling Technology, Inc.).

[6] = system: ICAM-1; assay: Western blot of ICAM-1 in kidney tissues after cisplatin; type: in vivo, mouse; conditions: kidney tissues of WT mice administered cisplatin
Experimental: (§6) An investigation was performed to see if the expression of ICAM-1 and VCAM-1 genes, which are molecules related to inflammatory response, in an experimental group administered cisplatin is regulated by an SIRT2 gene. Western blotting was performed by the method of the above Example 11, using ICAM-1 (Santa Cruz Biotechnology, Santa Cruz, Calif., US) and VCAM-1 (Santa Cruz Biotechnology, Santa Cruz, Calif., US) antibodies.

[7] = system: caspase-3; assay: Western blot of caspase-3 in kidney tissues after cisplatin; type: in vivo, mouse; conditions: kidney tissues of WT mice administered cisplatin
Experimental: as §4, §5

[8] = system: VCAM-1; assay: Western blot of VCAM-1 in kidney tissues after cisplatin; type: in vivo, mouse; conditions: kidney tissues of WT mice administered cisplatin
Experimental: as §6

[9] = Survival rate after cisplatin administration; type: in vivo, mouse; conditions: control group (SIRT2+/+) administered cisplatin
Description: Based on the result, it can be seen that the knocking out an SIRT2 gene inhibits kidney injuries caused by cisplatin.

[10] = SIRT2 inhibitor 10 μM 30 minutes prior to cisplatin 20 μg/ml for 48 hours, compared with cisplatin alone
[11] = used together with cisplatin, compared with cisplatin alone

Compound	number of adhesion cells [1, 10]	cell proliferation (XTT absorbance) [2, 11]	CXCL2 mRNA expression level [3]	CCL2 mRNA expression level [4]	p53 acetylation [5]	ICAM-1 expression [6]	number of adhesion cells ([1]; cisplatin 20 μg/ml for 48 hours alone)	cell proliferation (XTT absorbance) ([2]; cisplatin alone)	cleaved caspase-3 expression [7]	VCAM-1 expression [8]	survival [9]
O=C(Nc1cccc2ncccc12)/C(O)=C/c1ccc(-c2cc(Cl)ccc2Cl)o1 [AGK2]	significantly increased	significantly increased									
O=C(Nc1cccc([N+](=O)[O-])c1)c1cccc(S(=O)(=O)N2CCCCCC2)c1 [AK-1]	significantly increased	significantly increased	decrease	decrease							
N.N.[Cl][Pt][Cl] [cisplatin, cis-diammine-dichloroplatinum [II]]					increased	increased	decreased	decreased	increased	increased	all mice died in 6 days
